Source: patent US7906525B2, “Reduction of imiquimod impurities at four months using refined oleic acid” (priority 2004, dated 2011)
Values after ≈ are worked out from the molar mass of the structure shown.

Test: Solubility in water
Format: physicochemical

solubility: 0.79 µg/mL (≈ 3.29 µM)
Structure (SMILES): CC(C)Cn1cnc2c(N)nc3ccccc3c21 [imiquimod, 1-(2-methylpropyl)-1H-imidazo[4,5-c]quinolin-4-amine]
